Source: patent US10648917B2, “Luminescent compositions and applications thereof” (THE PENN STATE RESEARCH FOUNDATION, priority 2015, dated 2020)

Assay: Fluorescence spectra, absorbance and quantum yield (spectrofluorometer, integration sphere)
Assay type: physicochemical
Conditions: for Φ (quantum yield) / λem (maximum emission wavelength) / λex (maximum excitation wavelength) / ϵ (extinction coefficiency): Table III; for Shifting (emission shifting with excitation wavelength): CFD dyes; for Max. Em. Wavelength / Max. Ex. Wavelength / Quantum Yield: representative CFDs, Table I
Protocol: Fluorescence spectra were recorded by a Horiba FluoroMax-4 spectrofluorometer. All polymer and small molecule samples were measured at a concentration of 2% w/w in 1,4-dioxane or DI water and a slit size of 1 nm by 1 nm unless otherwise specified. Quantum yields were also determined on the same spectrofluorometer by using a Quantum-φ integration sphere at the same concentration and slit size with the blank solvent as the reference. ^1H-NMR, ^13C-NMR were performed on a JNM ECS 300 spectrometer using DMSO-d6 or D2O as solvents. Attenuated total reflection Fourier transform infrared (ATR-FTIR) spectra were collected with a Bruker V70 spectrometer using BPLP films. A Shimadzu HPLC-MS system with a Phenomenex Kinetex 2.6u XB-C18 100 mm×2.9 mm column, a SPD M20A PDA detector and a RF-20AXS fluorescence detector (Ex. 360 nm and Em. 430 nm) was used to characterize the structures of fluorophores as well. The mobile phase was a gradient of DI water and acetonitrile with 0-6 min 2% acetonitrile, 6-12 min 2%-30% acetonitrile, and 12-15 min 2% acetonitrile. The flow rate was 0.15 ml/min. Electrospray ionization mass spectroscopy (ESI-MS) was performed with a positive voltage of 4.5 kV and negative mode voltage −4.0 kV and a CDL temperature of 200° C. The analysis of the degradation products of BPLPs were conducted by immersing BPLPs in 1M K2CO3 solution at 37° C. for 24 hours. After degradation, the solutions were neutralized by 1N HCl solution to pH 7 and characterized by HPLC-MS as described above.
Fluorescence spectra were recorded by a Horiba FluoroMax-4 spectrofluorometer. All samples were measured at a concentration corresponding to an optical density of 0.1 in water and a slit size of 1 nm by 1 nm unless specified. Quantum yields were also determined on same spectrofluorometer by using a Quantum-φ integration sphere at samples' maximum excitation wavelength and at an increment of 0.3 nm. Photostability studies were done by continuously exciting samples at their maximum excitation wavelength and monitoring at the maximum emission wavelength.
Fluorescence spectra were recorded on a Horiba FluoroMax-4 spectrofluorometer (Horiba Scientific, Edison N.J.). All polymer and samples were characterized at a concentration of 2 wt % in 1,4-dioxane and a slit size of 1 nm by 1 nm unless otherwise specified. The fluorescence properties of small molecule dyes were also measure in 2 wt % DI water solutions at same conditions as polymer solutions. BPLPs were also degraded in 1M K2CO3 solution at 37° C. for 24 hours and then neutralized with 1N HCl solution to pH7. The resulting degradation solutions were subject to further PL characterizations. Quantum yields were also determined on the same spectrofluorometer by using a Quantum-φ integration sphere (Horiba Scientific, Edison N.J.) at the same concentration and slit size with the blank solvent as the reference. Photostability of small molecules and polymers were determined by monitoring the emission intensity decay at their max. Excitation and emission wavelengths over 3 hours of continuous lumination in the spectrofluorometer.
Absorbance Spectra were recorded on Tecan Infinite M200 Pro UV-vis spectroscopy, and fluorescence spectra were recorded on Horiba FluoroMax-4 fluorospectroscopy at concentrations below 0.1 O.D. unless otherwise indicated. Quantum Yields were measured on the Quantum φ Integrating Sphere accessory to the FluoroMax-4, while lifetime measurements were determined through the Time-Correlation Single Photon Counting (TCSPC) accessory to the FluroMax-4. TCSPC was utilized in conjunction with NanoLED pulsed diode light source with peak excitation wavelength at 352 nm and at 10,000 counts peak preset. Emission was collected at the fluorescence λmax, unless otherwise indicated. For all pH-dependence experiments, sample pH was adjusted with sulfuric acid or sodium hydroxide. For all chloride-dependent quenching experiments, magnesium chloride hexahydrate (Sigma Aldrich) was used.

Structure (SMILES)	Φ (quantum yield)	λem (maximum emission wavelength)	λex (maximum excitation wavelength)	ϵ (extinction coefficiency)	Shifting (emission shifting with excitation wavelength)	Max. Em. Wavelength	Max. Ex. Wavelength	Quantum Yield
O=C(O)c1cc(=O)n2c(c1)sc1ccccc12 [CA-2-Aminothiolphenol]	98.5%	439 nm	396 nm	877.8 M⁻¹ cm⁻¹				
CC(CC(=O)O)N1C(=O)C=C(C(=O)O)CC1=O (centres unmarked) [CA-3-Aminobutanoic Acid]	8.8%	430 nm	356 nm	6.3 M⁻¹ cm⁻¹				
O=C(O)C1=CC(=O)N(c2ccc(S)cc2)C(=O)C1 [CA-4-Aminothiolphenol]	14.1%	437 nm	396 nm	19.6 M⁻¹ cm⁻¹				
N=C(N)NCCCC(C(=O)O)N1C(=O)C=C(C(=O)O)CC1=O (centres unmarked) [CA-Arginine]	15.5%	451 nm	382 nm	11.6 M⁻¹ cm⁻¹				
NC(=O)CC(C(=O)O)N1C(=O)C=C(C(=O)O)CC1=O (centres unmarked) [CA-Asparagine]	23.8%	440 nm	378 nm	35.5 M⁻¹ cm⁻¹				
O=C(O)CC(C(=O)O)N1C(=O)C=C(C(=O)O)CC1=O (centres unmarked) [CA-Aspartic Acid]	19.7%	427 nm	356 nm	6.8 M⁻¹ cm⁻¹				
NC(CSSCC(C(=O)O)N1C(=O)C=C(C(=O)O)CC1=O)C(=O)O (centres unmarked) [CA-Cystine]	15%	430 nm	367 nm	11.6 M⁻¹ cm⁻¹				
NCCN1C(=O)C=C(C(=O)O)CC1=O [CA-EDA]	9.2%	440 nm	377 nm	828.3 M⁻¹ cm⁻¹	Yes	440 nm	377 nm	9.2%
O=C(O)CCC(C(=O)O)N1C(=O)C=C(C(=O)O)CC1=O (centres unmarked) [CA-Glutamic Acid]	9.1%	423 nm	358 nm	5.1 M⁻¹ cm⁻¹				
NC(=O)CCC(C(=O)O)N1C(=O)C=C(C(=O)O)CC1=O (centres unmarked) [CA-Glutamine]	7.3%	448 nm	383 nm	102.4 M⁻¹ cm⁻¹				
O=C(O)CN1C(=O)C=C(C(=O)O)CC1=O [CA-Gly]	39.0%	434 nm	357 nm	12 M⁻¹ cm⁻¹	Yes	434 nm	357 nm	39.0%
CCCCCCCN1C(=O)C=C(C(=O)O)CC1=O [CA-Heptylamine]	13.5%	424 nm	356 nm	4.7 M⁻¹ cm⁻¹				
NCCCCCCN1C(=O)C=C(C(=O)O)CC1=O [CA-Hexamethylenediamine]	11.5%	426 nm	357 nm	9.4 M⁻¹ cm⁻¹				
O=C(O)c1cc2n(c(=O)c1)C(C(=O)O)CCS2 (centres unmarked) [CA-Homocysteine]	70.8%	445 nm	375 nm	109.2 M⁻¹ cm⁻¹				
CCC(C)C(C(=O)O)N1C(=O)C=C(C(=O)O)CC1=O (centres unmarked) [CA-Isoleucine]	17.2%	430 nm	357 nm	5.6 M⁻¹ cm⁻¹				
CC(C)CC(C(=O)O)N1C(=O)C=C(C(=O)O)CC1=O (centres unmarked) [CA-Leucine]	8.8%	423 nm	359 nm	6.2 M⁻¹ cm⁻¹				
NCCCCC(C(=O)O)N1C(=O)C=C(C(=O)O)CC1=O (centres unmarked) [CA-Lysine]	8.6%	431 nm	359 nm	11.4 M⁻¹ cm⁻¹				
CSCCC(C(=O)O)N1C(=O)C=C(C(=O)O)CC1=O (centres unmarked) [CA-Methionine]	10.5%	424 nm	362 nm	5.3 M⁻¹ cm⁻¹				
CC1(C)Sc2cc(C(=O)O)cc(=O)n2C1C(=O)O (centres unmarked) [CA-Penicillamine]	80.6%	432 nm	369 nm	3180 M⁻¹ cm⁻¹				
O=C(O)C1=CC(=O)N(C(Cc2ccccc2)C(=O)O)C(=O)C1 (centres unmarked) [CA-Phenylalanine]	12.7%	423 nm	358 nm	7.8 M⁻¹ cm⁻¹				
Nc1ccc(N2C(=O)C=C(C(=O)O)CC2=O)cc1 [CA-Phenylenediamine]	4.5%	433 nm	360 nm	12.1 M⁻¹ cm⁻¹				
O=C(O)C1=CC(=O)N(C(CO)C(=O)O)C(=O)C1 (centres unmarked) [CA-Serine]	4.2%	440 nm	369 nm	437.9 M⁻¹ cm⁻¹				
CC1Oc2cc(C(=O)O)cc(=O)n2C1C(=O)O (centres unmarked) [CA-Threonine]	78.6%	436 nm	386 nm	418 M⁻¹ cm⁻¹				
O=C(O)C1=CC(=O)N(C(CC2=c3ccccc3=NC2)C(=O)O)C(=O)C1 (centres unmarked) [CA-Tryptophan]	5%	445 nm	386 nm	14.6 M⁻¹ cm⁻¹				
